This is an account of results in patent US20130261077A1 (priority 2012, published 2013).

For orientation: IC50 means the point on the concentration scale where inhibition reaches its midpoint. What is called Kd is the constant that tells how readily two partners part at equilibrium. A low value points to tighter binding.

The target of this assay is T1, FimH-CRD (Escherichia coli, UniProt P08191).
T1 construct: The first 177 amino acids of the FimH protein; thrombin tag (printed as 'fusion protein with thrombin') (cleaved yes); made in house; host or cells: bacteria (pET21b plasmid)
T1 sequence (P08191 22-177): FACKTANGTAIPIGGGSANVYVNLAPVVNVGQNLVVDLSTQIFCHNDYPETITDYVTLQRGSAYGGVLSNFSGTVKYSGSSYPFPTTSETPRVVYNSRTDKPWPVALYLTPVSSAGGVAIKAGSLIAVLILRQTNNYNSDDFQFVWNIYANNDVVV
In words: Competitive binding assay by fluorescence polarization, assay 1 (compounds prepared by manual serial dilution). A digest of the protocol: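 Compounds at 0.4 nM–75 μM final (12 points, 3-fold steps, duplicate) compete with a 5 nM Alexa 647 mannoside probe for 60 nM FimH-CRD; 5 h room-temperature incubation in pH 7.0 Tris buffer with 2.5% DMSO, FP read-out, Kd from fitted curves. Assay 1 uses manual dilution, assay 2 robot-made frozen/thawed plates.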
With `OC[C@H]1O[C@H](O[C@@H]2[C@H](O)[C@@H](c3ccc(O)cc3)O[C@H](CO)[C@H]2O)[C@@H](O)[C@@H](O)[C@@H]1O` [Compound 266, (2R,3S,4S,5S,6R)-2-[(2R,3R,4R,5R,6R)-3,5-Dihydroxy-2-(hydroxymethyl)-6-(4-hydroxyphenyl)tetrahydropyran-4-yl]oxy-6-(hydroxymethyl)tetrahydropyran-3,4,5-triol], the IC50 came to 59 nM and the Kd was found to be 21.3 ± 6.2 nM.
The molecule `CNC(=O)c1ccc(Oc2cccc([C@H]3O[C@H](CO)[C@@H](O)[C@H](O[C@H]4O[C@H](CO)[C@@H](O)[C@H](O)[C@@H]4O)[C@@H]3O)c2)cc1` [Compound 267, 4-[3-[(2R,3R,4R,5R,6R)-3,5-Dihydroxy-6-(hydroxymethyl)-4-[(2R,3S,4S,5S,6R)-3,4,5-trihydroxy-6-(hydroxymethyl)tetrahydropyran-2-yl]oxy-tetrahydropyran-2-yl]phenoxy]-N-methyl-benzamide] returned an IC50 of 68 nM and an equilibrium dissociation constant (Kd) of 12.8 ± 8 nM.
In turn, `CNC(=O)c1cccc(Oc2ccc([C@H]3O[C@H](CO)[C@@H](O)[C@H](O[C@H]4O[C@H](CO)[C@@H](O)[C@H](O)[C@@H]4O)[C@@H]3O)cc2)c1` [Compound 268, 3-[4-[(2R,3R,4R,5R,6R)-3,5-Dihydroxy-6-(hydroxymethyl)-4-[(2R,3S,4S,5S,6R)-3,4,5-trihydroxy-6-(hydroxymethyl)tetrahydropyran-2-yl]oxy-tetrahydropyran-2-yl]phenoxy]-N-methyl-benzamide] came in with an IC50 of 77 nM and a Kd of 19 ± 3.8 nM.
The molecule `CNC(=O)c1cccc(Oc2cccc([C@H]3O[C@H](CO)[C@@H](O)[C@H](O[C@H]4O[C@H](CO)[C@@H](O)[C@H](O)[C@@H]4O)[C@@H]3O)c2)c1` [Compound 269, 3-[3-[(2R,3R,4R,5R,6R)-3,5-Dihydroxy-6-(hydroxymethyl)-4-[(2R,3S,4S,5S,6R)-3,4,5-trihydroxy-6-(hydroxymethyl)tetrahydropyran-2-yl]oxy-tetrahydropyran-2-yl]phenoxy]-N-methyl-benzamide] had an IC50 of 10 nM and a Kd below 5 nM.
On the same counts, the results for `OC[C@H]1O[C@H](O[C@@H]2[C@H](O)[C@@H](c3cccc(Oc4ccc(F)cc4)c3)O[C@H](CO)[C@H]2O)[C@@H](O)[C@@H](O)[C@@H]1O` [Compound 270, (2R,3S,4S,5S,6R)-2-[(2R,3R,4R,5R,6R)-2-[3-(4-Fluorophenoxy)phenyl]-3,5-dihydroxy-6-(hydroxymethyl)tetrahydropyran-4-yl]oxy-6-(hydroxymethyl)tetrahydropyran-3,4,5-triol] are 54 nM and 14.4 ± 2.6 nM.
For `OC[C@H]1O[C@H](O[C@@H]2[C@H](O)[C@@H](c3cccc(Oc4ccccc4)c3)O[C@H](CO)[C@H]2O)[C@@H](O)[C@@H](O)[C@@H]1O` [Compound 271, (2R,3S,4S,5S,6R)-2-[(2R,3R,4R,5R,6R)-3,5-Dihydroxy-2-(hydroxymethyl)-6-(3-phenoxyphenyl)tetrahydropyran-4-yl]oxy-6-(hydroxymethyl)tetrahydropyran-3,4,5-triol], the IC50 was determined as 27 nM and the Kd was determined as 14.7 ± 7 nM.
On the same counts, the results for `Cc1nnc(-c2ccc(Oc3cccc([C@H]4O[C@H](CO)[C@@H](O)[C@H](O[C@H]5O[C@H](CO)[C@@H](O)[C@H](O)[C@@H]5O)[C@@H]4O)c3)cc2)o1` [Compound 272, (2R,3S,4S,5S,6R)-2-[(2R,3R,4R,5R,6R)-3,5-Dihydroxy-2-(hydroxymethyl)-6-[3-[4-(5-methyl-1,3,4-oxadiazol-2-yl)phenoxy]phenyl]tetrahydropyran-4-yl]oxy-6-(hydroxymethyl)tetrahydropyran-3,4,5-triol] are 46 nM and 12.7 ± 7.7 nM.
For the molecule `Cc1cc(C)cc(Oc2cccc([C@H]3O[C@H](CO)[C@@H](O)[C@H](O[C@H]4O[C@H](CO)[C@@H](O)[C@H](O)[C@@H]4O)[C@@H]3O)c2)c1` [Compound 274, (2R,3S,4S,5S,6R)-2-[(2R,3R,4R,5R,6R)-2-[3-(3,5-Dimethylphenoxy)phenyl]-3,5-dihydroxy-6-(hydroxymethyl)tetrahydropyran-4-yl]oxy-6-(hydroxymethyl)tetrahydropyran-3,4,5-triol], the IC50 turned out to be 34 nM and the Kd worked out at 43.1 ± 53 nM.
On the same counts, the results for `CNC(=O)c1ccc(-c2cccc([C@H]3O[C@H](CO)[C@@H](O)[C@H](O[C@H]4O[C@H](CO)[C@@H](O)[C@H](O)[C@@H]4O)[C@@H]3O)c2)cc1` [Compound 275, 4-[3-[(2R,3R,4R,5R,6R)-3,5-Dihydroxy-6-(hydroxymethyl)-4-[(2R,3S,4S,5S,6R)-3,4,5-trihydroxy-6-(hydroxymethyl)tetrahydropyran-2-yl]oxy-tetrahydropyran-2-yl]phenyl]-N-methyl-benzamide] are 28 nM and 26.8 ± 15.4 nM.
On the same counts, the results for `CS(=O)(=O)c1ccc(-c2cccc([C@H]3O[C@H](CO)[C@@H](O)[C@H](O[C@H]4O[C@H](CO)[C@@H](O)[C@H](O)[C@@H]4O)[C@@H]3O)c2)cc1` [Compound 276, (2R,3S,4S,5S,6R)-2-[(2R,3R,4R,5R,6R)-3,5-dihydroxy-2-(hydroxymethyl)-6-[3-(4-methylsulfonylphenyl)phenyl]tetrahydropyran-4-yl]oxy-6-(hydroxymethyl)tetrahydropyran-3,4,5-triol] are 49 nM and 11.1 ± 3.4 nM.
With `CNC(=O)c1cc(C(=O)NC)cc(-c2cccc([C@H]3O[C@H](CO)[C@@H](O)[C@H](O[C@H]4O[C@H](CO)[C@@H](O)[C@H](O)[C@@H]4O)[C@@H]3O)c2)c1` [Compound 277, 5-[3-[(2R,3R,4R,5R,6R)-3,5-Dihydroxy-6-(hydroxymethyl)-4-[(2R,3S,4S,5S,6R)-3,4,5-trihydroxy-6-(hydroxymethyl)tetrahydropyran-2-yl]oxy-tetrahydropyran-2-yl]phenyl]-N1,N3-dimethyl-benzene-1,3-dicarboxamide], the IC50 is 47 nM and binding was put at a Kd of 10.7 ± 3.9 nM.
On to `OC[C@H]1O[C@H](O[C@@H]2[C@H](O)[C@@H](c3cccc(C4CCCCC4)c3)O[C@H](CO)[C@H]2O)[C@@H](O)[C@@H](O)[C@@H]1O` [Compound 278, (2R,3S,4S,5S,6R)-2-[(2R,3R,4R,5R,6R)-2-(3-Cyclohexylphenyl)-3,5-dihydroxy-6-(hydroxymethyl)tetrahydropyran-4-yl]oxy-6-(hydroxymethyl)tetrahydropyran-3,4,5-triol], for which the IC50 is 64 nM and binding was put at a Kd of 12.7 ± 0.9 nM.
Taken in the same sequence, the figures for `OC[C@H]1O[C@H](O[C@@H]2[C@H](O)[C@@H](c3cccc(-c4cncnc4)c3)O[C@H](CO)[C@H]2O)[C@@H](O)[C@@H](O)[C@@H]1O` [Compound 279, (2R,3S,4S,5S,6R)-2-[(2R,3R,4R,5R,6R)-3,5-Dihydroxy-2-(hydroxymethyl)-6-(3-pyrimidin-5-ylphenyl)tetrahydropyran-4-yl]oxy-6-(hydroxymethyl)tetrahydropyran-3,4,5-triol] were 51 nM and 9.9 ± 1.1 nM.
`Cn1cnc2ccc(-c3cccc([C@H]4O[C@H](CO)[C@@H](O)[C@H](O[C@H]5O[C@H](CO)[C@@H](O)[C@H](O)[C@@H]5O)[C@@H]4O)c3)cc21` [Compound 280, (2R,3S,4S,5S,6R)-2-[(2R,3R,4R,5R,6R)-3,5-Dihydroxy-2-(hydroxymethyl)-6-[3-(3-methylbenzimidazol-5-yl)phenyl]tetrahydropyran-4-yl]oxy-6-(hydroxymethyl)tetrahydropyran-3,4,5-triol (Trifluoroacetate Ion (1))] returned an IC50 of 59 nM and an equilibrium dissociation constant (Kd) of 18.1 ± 7.1 nM.
On the same counts, the results for `C=CC[C@H]1O[C@H](CO)[C@@H](O)[C@H](O[C@H]2O[C@H](CO)[C@@H](O)[C@H](O)[C@@H]2O)[C@@H]1O` [Compound 281, (2R,3S,4S,5S,6R)-2-[(2R,3R,4R,5R,6R)-2-Allyl-3,5-dihydroxy-6-(hydroxymethyl)tetrahydropyran-4-yl]oxy-6-(hydro I amymethyl)tetrahydropyran-3,4,5-triol] are 216 nM and 51.1 ± 7.6 nM.
On the same counts, the results for `OC[C@H]1O[C@H](O[C@H]2[C@H](O)[C@@H](CO)O[C@H](C/C=C/C3CCCCC3)[C@H]2O)[C@@H](O)[C@@H](O)[C@@H]1O` [Compound 282, (2R,3S,4S,5S,6R)-2-[(2R,3R,4R,5R,6R)-2-[(E)-3-Cyclohexylallyl]-3,5-dihydroxy-6-(hydroxymethyl)tetrahydropyran-4-yl]oxy-6-(hydroxymethyl)tetrahydropyran-3,4,5-triol] are 212 nM and 40.6 ± 0.03 nM.
Taken in the same sequence, the figures for `COC(=O)c1ccc(CCC[C@H]2O[C@H](CO)[C@@H](O)[C@H](O[C@H]3O[C@H](CO)[C@@H](O)[C@H](O)[C@@H]3O)[C@@H]2O)cc1` [Compound 283, Methyl 4-[3-[(2R,3R,4R,5R,6R)-3,5-dihydroxy-6-(hydroxymethyl)-4-[(2R,3S,4S,5S,6R)-3,4,5-trihydroxy-6-(hydroxymethyl)tetrahydropyran-2-yl]oxy-tetrahydropyran-2-yl]propyl]benzoate] were 27 nM and 10.8 ± 4.1 nM.
Consider `COc1cccc([C@H]2O[C@H](CO)[C@@H](O)[C@H](O[C@H]3O[C@H](CO)[C@@H](O)[C@H](O)[C@@H]3O)[C@@H]2O)c1` [Compound 284, (2R,3S,4S,5S,6R)-2-[(2R,3R,4R,5R,6R)-3,5-Dihydroxy-2-(hydroxymethyl)-6-(3-methoxyphenyl)tetrahydropyran-4-yl]oxy-6-(hydroxymethyl)tetrahydropyran-3,4,5-triol], for which the IC50 turned out to be 49 nM and the affinity, expressed as Kd, was 166 ± 96.5 nM.
Taken in the same sequence, the figures for `OC[C@H]1O[C@H](O[C@@H]2[C@H](O)[C@@H](c3cccc(OCC4CCCC4)c3)O[C@H](CO)[C@H]2O)[C@@H](O)[C@@H](O)[C@@H]1O` [Compound 285, (2R,3S,4S,5S,6R)-2-[(2R,3R,4R,5R,6R)-2-[3-(Cyclopentylmethoxy)phenyl]-3,5-dihydroxy-6-(hydroxymethyl)tetrahydropyran-4-yl]oxy-6-(hydroxymethyl)-tetrahydropyran-3,4,5-triol] were 80 nM and 14.7 ± 1.2 nM.
